# According to US20040086498A9, “Cancer therapy” (priority 1999, published 2004):
# Key:
# [1] = test system: EL-4 tumours; experiment: Treatment of large established EL-4 tumours with CAM gene transfer, DMXAA/FAA or timed combination; assay type: in vivo, C57BL/6 mice; conditions: large EL-4 tumours 0.6-0.8 cm; systemic (i.p.) optimal dose monotherapy; over a period of 3 weeks
# Method: Female C57BL/6 mice, 6-9 weeks old, were obtained from the Animal Resource Unit, School of Medicine and Health Science, University of Auckland, Auckland. The EL-4 thymic lymphoma and mouse Lewis lung carcinoma cells (LLC) (H-2b) were purchased from the American Type Culture Collection (Rockville, Md). These cell lines were cultured in vitro at 37° C. in DMEM medium (Gibco BRL), supplemented with 10% foetal calf serum, 50 U/ml penicillin/streptomycin, 2 mM L-glutamine, 1 mM pyruvate.
# Experimental Tumour Model.
# Administration FAA and DMXAA Analogues. FAA was gifted from the Department of Health & Human Services, Drug Synthesis & Chemistry laboratory, National Cancer Institute, Bethesda, USA. The sodium salt of DMXAA was synthesized in the Auckland Cancer Society Research Centre, School of Medicine and Health Science, University of Auckland. Solutions of FAA and DMXAA in 5% (w/v) sodium bicarbonate and water, respectively, were prepared fresh for each experiment and protected from light. FAA and DMXAA were injected i.p. at 300 mg/Kg and 25 mg/Kg of body weight in a volume of 0.01 ml/g body weight, respectively.
# Gene Transfer of B7.1. […]
# [2] = test system: EL-4 target cells; experiment: Measurement of anti-tumour CTL activity of splenocytes from treated mice; assay type: cell-based; conditions: 21 days following gene transfer; combinations versus B7.1 monotherapy
# Method: Measurement of the Generation of Anti-Tumour CTL. Splenocytes were harvested 21, and 42 days following initial gene transfer, and 22 days following a parental tumour challenge. They were incubated at 37° C. with EL-4 target cells in graded E:T ratios in 96-well round-bottom plates. After a 4-hour incubation, 50 μl of supernatant was collected, and lysis was measured using the Cyto Tox 96 Assay Kit (Promega, Madison, Wis., USA). Background controls for non-specific target and effector cell lysis were included. After background subtraction, percentage of cell lysis was calculated using the formula: 100×(experimental-spontaneous effector-target spontaneous target/maximum target-spontaneous target).
# [3] = test system: heat shock protein 70; experiment: Immunohistology of hsp70 expression in tumours; assay type: in vivo, mice; conditions: 7 days following administration
# Method: Immunohistology. Tumours were excised on the seventh day following administration of therapeutic agents and controls, immediately frozen in dry ice, stored at −70° C. in isopentane, and sections of 10 μm thickness prepared. Sections were mounted on poly L-lysine-coated slides, and endogenous peroxidases blocked by incubating slides for 30 min in 0.3% H2O2 in methanol. Sections were stained with mouse anti-Hsp70 mAb (SPA-810 antibody; StressGen Biotechnologies Corp., Victoria, Canada) using a mouse-on-mouse immunodetection ABC Elite peroxidase kit (Vector Laboratories, Burlingame, Calif., USA). They were developed with SIGMA FAST DAB (3,3′-diaminobenzidine tetrahydrochloride) with metal enhancer CoCl2 tablets, and counterstained with haematoxylin and eosin. As a control, the primary antibody was substituted with rat IgG (Sigma, USA).
# [4] = test system: EL-4 tumour sections; experiment: In situ detection of apoptotic and necrotic cells (TUNEL / propidium iodide); assay type: in vivo, mice; conditions: tumour sections 7, 14, 21 days after treatment; TUNEL and PI
# Method: In Situ Detection of Apoptotic Cells. Tumours were excised and immediately frozen in dry ice, stored at −70° C., and serial sections of 6 μm thickness prepared. TUNEL staining was performed using an In Situ apoptosis detection kit from Boehringer Mannheim, Germany. Briefly, frozen sections were fixed with paraformaldehyde solution (4% in PBS, pH 7.4), and permeabilized with a solution containing 0.1% Triton X-100 and 0.1% sodium citrate. After washing they were incubated with 20 μl TUNEL reagent for 60 min at 37° C., and examined by fluorescence microscopy. Some slides were counterstained with propidium iodide (PI; Sigma, Calif., USA) to distinguish necrotic cells from those undergoing apoptosis. Adjacent sections were counterstained with haematoxylin and eosin and mounted. The total number of apoptotic or necrotic cells were counted. The apototic index (AI) or necrotic index (NI) was calculated as follows: AI or NI=number of apoptotic or necrotic cells×100/total number of nucleated cells.
# [5] = test system: established EL-4 tumours; experiment: Adoptive transfer of anti-tumour splenocytes from treated mice; assay type: in vivo; conditions: 2×10^8 splenocytes from treated mice; recipients with EL-4 tumours up to 0.8 cm
# Method: Adoptive Transfer of Anti-Tumour CTL. Adoptive transfer of anti-tumour splenocytes was as described previously (Kanwar et al, 1999). Briefly, splenocytes obtained from mice 21 days following therapy were resuspended in Hank's balanced salt solution containing 1% FCS, and stimulated with 5 μg/ml PHA and 100 U/ml recombinant mouse IL-2 for 4 to 5 days. Animals bearing tumours 0.6 cm in diameter received both intratumoral and i.p. injections of 2×10^8 cultured splenocytes.
Compound,tumour diameter to which tumours shrank [1],anti-tumour CTL activity of splenocytes [2],hsp70 expression in tumours [3],apoptotic versus necrotic tumour cells [4],anti-tumour effect of adoptively transferred splenocytes [5]
flavone acetic acid [FAA],0.2-0.4 cm,very poor effectors,,,
"Cc1ccc2c(=O)c3cccc(CC(=O)O)c3oc2c1C [DMXAA, 5,6-dimethylxanthenone-4-acetic acid]",0.1-0.2 cm,very poor effectors,consistently found upregulated on tumour cells either surrounding or within the vicinity of blood vessels,predominance of necrotic cells,no detectable anti-tumour activity
